In PMC7179302, “Lead Optimization of Dehydroemetine for Repositioned Use in Malaria” (Antimicrobial Agents and Chemotherapy, 2020):
Where a name gives a salt, the structure may show the parent alone.

How the values were obtained:
[1] = system: mitochondrial membrane potential of P. falciparum strain K1 trophozoites; experiment: Rhodamine 123 staining for mitochondrial membrane potential, flow cytometry; type: cell-based, Plasmodium falciparum; settings: deviation from infected blood without drugs
Protocol: Changes in mitochondrial membrane potential were measured using rhodamine 123 (excitation wavelength, 511 nm; emission wavelength, 534 nm), a membrane-permeating cationic fluorescent dye ([49]), which accumulates by electrostatic attraction in the mitochondria because of its negative transmembrane potential. A change in the dye’s concentration in the mitochondria is caused by a depolarization event and can be visualized as a shift in the fluorescence intensity of rhodamine 123 ([50]). Draq5 (excitation wavelength, 647 nm; emission wavelength, >665 nm) is a far-red fluorescent DNA dye which is cell permeating and was used to distinguish the parasites in flow cytometry in the allophycocyanin (APC)-Cy7-A channel. SYBR green was not preferred for this experiment as it emits in the same channel as rhodamine 123 and would result in the overlap of emission signals. Fluorescence microscopy was used to visualize the localization of rhodamine 123 within the cytoplasm of the parasites (Fig. 9).
A decrease in fluorescence intensity measured in the fluorescein isothiocyanate (FITC)-A channel indicates a loss of mitochondrial membrane potential. Atovaquone, a known mitochondrial inhibitor, was used as a control.
Compounds were then washed away by centrifuging the cultures, and a pellet was prepared for each drug concentration. Pellets were then incubated with 1 ml of 200 nM rhodamine 123 for 1 h, followed by a further incubation with 100 μl of 5 μM Draq5 for 20 min. After a wash with PBS, the experiment was read with a flow cytometer on the FITC channel. Loss of mitochondrial membrane potential was indicated by a decrease in fluorescence intensity.

HepG2 cells = experiment: MTT assay for cell cytotoxicity against HepG2 cells; type: cell-based; settings: HepG2 cells, 48 h; ± SD
Protocol: HepG2 cells (University of Salford stocks, purchased from American Type Culture Collection [ATCC], USA), were grown in medium consisting of RPMI 1640, 2 mM L-glutamine, HEPES, 10% fetal bovine serum, 1% nonessential amino acids, and 1% penicillin-streptomycin. Cells were calculated on a hemocytometer to make a new cell-medium solution to a concentration of 5,000 cells/100 μl, and 100 μl of this new cell solution was added into each well of the 96-well plate. After 24 h of incubation, 100-μl amounts of the drug prepared in the medium were added to the wells. This was repeated in triplicate, and the plate was incubated for a further 48 h ([56]). After the incubation period, 50 μl of MTT solution was added to each well and incubated for 3 h. The liquid in each well was aspirated carefully, 200 μl of DMSO was added to each well, and the results were read on the Ascent plate reader.

[2] = system: P. falciparum strain 3D7A; experiment: 3H-hypoxanthine incorporation assay, strain 3D7A; type: cell-based; settings: Plasmodium falciparum; sensitive strain 3D7A, 3H-hypoxanthine incorporation; read-out: IC50 (μM) 3D7A
Protocol: (§1) The cross-resistance assay used relies on the parasites’ incorporation of labeled 3H-hypoxanthine, which is proportional to P. falciparum growth. In vitro cross-resistance of the compounds is measured as the ratio between the IC50 for the tested P. falciparum strain and the IC50 for strain 3D7A. Every replicate from a multidrug-resistant (MDR) strain involved a simultaneous determination using a 3D7A replicate to avoid any artifact linked to experimental conditions.
(§2) The three strains used for the cross-resistance assay were 3D7A, Dd2, and W2, based on their resistance profiles; the assay was carried out by GSK, Tres Cantos. Strain 3D7A is chloroquine sensitive, strain Dd2 is resistant to chloroquine, mefloquine, and pyrimethamine ([57]), and strain W2 is resistant to chloroquine, quinine, pyrimethamine, cycloguanil, and sulfadoxine (from the Malaria Research and Reference Reagent Resource Center [MR4]) ([58]). A culture of red blood cells (RBCs) parasitized by the corresponding strain (0.5% parasitemia, 2% hematocrit) in RPMI 1640, […], and 5 μM hypoxanthine was exposed to 9 dilutions (3-fold serial dilutions) of the compound starting at 5 μM. One hundred microliters of culture volume was plated in 96-well flat-bottom microtiter plates with 0.5 μl drug (200× stock in DMSO). Plates were incubated for 24 h at 37°C, 5% CO2, 5% O2, 90% N2. Next, 3H-hypoxanthine was added and plates were incubated for another 24-h period. After that, parasites were harvested on a glass fiber filter using a TomTec cell harvester 96. Filters were dried, and melt-on scintillator sheets were used to determine the incorporation of 3H-hypoxanthine. Radioactivity was measured using a MicroBeta counter. […] IC50 values were determined using the Grafit 7 program ([41]).

P. falciparum strain Dd2 = experiment: microbe, parasite or virus in culture; type: cell-based; settings: Plasmodium falciparum, DD2, read-out: IC50 (μM) Dd2
Protocol: as §1, §2

P. falciparum strain W2 = experiment: microbe, parasite or virus in culture; type: cell-based; settings: Plasmodium falciparum, W2, read-out: IC50 (μM) W2
Protocol: as §1, §2

[3] = system: K1 strain of P. falciparum; set-up: method as in PMID 15610563, PMID 24107123; settings: mean ± standard deviation; cited from earlier work
Entamoeba histolytica = system: Entamoeba histolytica; set-up: method as in PMID 15610563, PMID 24107123; settings: cited from earlier work

Structure (SMILES)	Change in fluorescence intensity (FITC-A mean) of rhodamine 123 ([1]; at 10× IC50, 2 h) [%]	Change in fluorescence intensity (FITC-A mean) of rhodamine 123 ([1]; at IC50, 2 h) [%]	LD50 (50% lethal dose), MTT assay (HepG2 cells) [nM]	IC50 [2] [µM]	IC50 (P. falciparum strain Dd2) [µM]	IC50 (P. falciparum strain W2) [µM]	IC50 [3] [nM]	IC50 (Entamoeba histolytica) [nM]
O=C1C(O)=C([C@H]2CC[C@H](c3ccc(Cl)cc3)CC2)C(=O)c2ccccc21 [Atovaquone, atovaquone]	43.17	41.95						
CC[C@H]1CN2CCc3cc(OC)c(OC)cc3[C@@H]2C[C@@H]1C[C@H]1NCCc2cc(OC)c(OC)cc21 [Emetine dihydrochloride, emetine dihydrochloride, reference compound]	35.13	31.12	199.2 ± 9.3	0.234	0.269	0.181	47	26800 ± 1270
